The values that follow come from a melting point compilation (Tetko et al.).

Molecules are shown by their SMILES.

Consider `O=C(CCl)c1sccc1Br`, for which the melting point (commonly the temperature of the solid-liquid transition) fell in the range of 75 to 77 °C.

As to `Nc1nnc(-c2ccc3c(c2)OCCO3)o1`, the melting point was 247 to 249 °C.

Compound `Cc1ccc(NS(=O)(=O)c2ccc(C(=O)O)cc2)cc1` showed a melting point of 285 to 287 °C.

Compound `Cc1nn(CCC(=O)O)c(C)c1[N+](=O)[O-]` showed a melting point of 116 to 118 °C.

As for `Cc1cccc(NC(N)=S)c1`, the melting point lay within 110 to 112 °C.

`OCc1ccnc(-c2ccccc2)n1` came in with a melting point of 43 to 45 °C.

In turn, `CNc1ccc(OCCOC)cc1` came in with a melting point of 59 to 61 °C.

For `O=C(NCCCl)OCC(F)(F)F`, the melting point is 31 to 33 °C.

In turn, `Sc1nc2ccccc2n1-c1ccccc1` showed a melting point of 140 to 145 °C.

`Cn1c(=O)n(Cc2ccc(Br)cc2)c(=O)c2ccc(C(F)(F)F)nc21`: the melting point was in the range of 103 to 105 °C.

`O=C(O)c1nc2[nH]c(-c3ccccc3)cc(=O)n2n1`: the melting point fell in the range of 282 to 284 °C.

In turn, `O=C(O)c1cnn(-c2nccs2)c1` registered a melting point of 181 to 183 °C.

As to `N#Cc1cc(-c2ccccc2)c(-c2ccccc2)nc1Cl`, the melting point fell in the range of 129 to 131 °C.

In turn, `O=C(O)c1ccc(C(F)F)cc1` had a melting point of 205 to 207 °C.

`Nc1ccc(Oc2ccc(Cl)cc2)nc1` registered a melting point of 89 to 91 °C.

Compound `CC(C)CC(CCC(=O)O)C(=O)O` (centres undefined) yielded a melting point of 66 to 68 °C.

The compound `Cc1ccc2c(CC(=O)O)coc2c1` gave a melting point of 140 to 142 °C.

For `O=c1[nH]c2cc(Cl)ccc2c(=O)o1`, the melting point was in the range of 250 to 252 °C.

Compound `Cn1cc(-c2nc(C(=O)O)cs2)cn1` came in with a melting point of 262 to 264 °C.

The compound `CN1CCN(C(=O)CO)CC1` registered a melting point of 56 to 58 °C.

`Cc1cc(O)ccc1C(C)C` had a melting point of 111 to 114 °C.

As for `O=C1CCS(=O)CC1`, the melting point is 62 to 64 °C.

Compound `O=C(O)c1ccc(-c2noc(=O)[nH]2)cc1` displayed a melting point of 354 to 356 °C.

In turn, `O=C(O)CCCOc1ccc(S(=O)(=O)Cl)cc1Cl` registered a melting point of 134 to 136 °C.

Compound `CNC(=O)c1cccc(NC(=O)C(C)Cl)c1` (centres undefined) gave a melting point of 149 to 151 °C.

As to `Cc1ncsc1C(=O)NN`, the melting point lay in the range of 168 to 170 °C.

As for `O=c1ccccn1CCBr`, the melting point lay within 126 to 128 °C.

The compound `ClCc1cc(Br)ccc1Cl` gave a melting point of 47 to 49 °C.

Regarding `Nc1nc(-c2cc(Cl)ccc2Cl)cs1`, the melting point is 161 to 165 °C.

Take `CCOC(=O)C(C)=NNc1ccc(Br)cc1CC`: the melting point was in the range of 68 to 70 °C.

In the case of `Cc1ccc(C(C)C)cc1OC(C)C(=O)O` (centres undefined), the melting point was in the range of 80 to 82 °C.

As to `Cc1sc(N)c(C(=O)O)c1C`, the melting point was in the range of 120 to 122 °C.

The compound `CC(C)C(Br)C(=O)N(C)C1CCCCC1` (centres undefined) showed a melting point of 72 to 74 °C.

With `Cc1ccc(N(C(=O)CCCl)C2C=CS(=O)(=O)C2)cc1C` (centres undefined), the melting point lay within 122 to 124 °C.

For the compound `ON=C(C(=NO)c1ccccc1)c1ccccc1`, the melting point is 245 to 246 °C.

On to `Cc1c(Cl)ccc2ccc(N)nc12`, for which the melting point lay in the range of 134 to 136 °C.

On to `Nc1ccn(-c2ccc(Cl)cc2Cl)n1`, for which the melting point was in the range of 114 to 116 °C.

`CCc1c[nH]c(S)n1`: the melting point fell in the range of 163 to 165 °C.

Consider `Sc1ccc(Sc2ccc(S)cc2)cc1`, for which the melting point lay within 112 to 114 °C.

Turning to `O=C(O)c1c[nH]nc1-c1ccc(F)c(Cl)c1`, the melting point lay within 282 to 284 °C.

Turning to `CCOc1ccc(C(=O)CC)cc1OCC`, the melting point lay within 39 to 41 °C.

In the case of `O=C1CCC2(CC1)NC(=O)NC2=O`, the melting point was in the range of 199 to 201 °C.

`COC(=O)c1cc(S(=O)(=O)Cl)cc(F)c1F`: the melting point lay within 56 to 58 °C.

As to `CCS(=O)(=O)NCCS(=O)(=O)Cl`, the melting point was 68 to 70 °C.

As to `CC(C)(C)OC(=O)Nc1cccc(O)c1`, the melting point fell in the range of 135 to 137 °C.

`CN(C)c1nccc(Cl)n1`: the melting point was in the range of 79 to 81 °C.

In the case of `CCC(=O)c1cnn(C)c1`, the melting point lay within 44 to 46 °C.

`c1ccc(CNc2cccnc2)nc1`: the melting point was in the range of 50 to 52 °C.

The compound `Cc1cc(NC(=O)CCl)n(-c2ccc(F)cc2)n1` displayed a melting point of 128 to 130 °C.
